According to US12252457B2, “Compositions and methods for reducing tactile dysfunction, anxiety, and social impairment” (President and Fellows of Harvard College, priority 2018, dated 2025):
Entries after “also recorded” stand apart in the source; their conditions may differ.

Key:
[1] = system: genetic and environmental mouse models of ASD; test: Tactile PPI, air puff response and startle amplitude after acute midazolam or isoguvacine in ASD mouse models; format: in vivo
Description: FIGS. 19A-19N show acute administration of the peripherally-restricted GABAA receptor agonist isoguvacine improves tactile hypersensitivity in five genetic and one environmental model of ASD. […] Two-way ANOVA with post-hoc Sidak's test, *, p<0.05. FIG. 19B: Response to a light air puff stimulus alone in mice following i.p. administration of either saline or 2 mg/kg midazolam treatment. Responses are expressed as percent of startle response to a 125 dB noise. Two-way ANOVA with post-hoc Sidak's test, *, p<0.05. FIG. 19C: Magnitude of startle response to a 125 dB noise in mice following i.p. administration of either saline or 2 mg/kg midazolam treatment. Responses are expressed as percent of startle response to a 125 dB noise. Two-way ANOVA with post-hoc Sidak's test, *, p<0.05. FIG. 19D: Magnitude of startle response to a 125 dB noise in mice following i.p. administration of saline, midazolam (2 mg/kg) or a peripherally-restricted GABAA receptor agonist, isoguvacine (2 mg/kg). Responses are expressed as percent of startle response to a 125 dB noise. Two-way ANOVA with post-hoc Sidak's test, *, p<0.05. FIGS. 19E-19G: Liquid chromatography mass spectrometry (LC-MS) quantified isoguvacine concentrations in cerebrospinal fluid (CSF) (FIG. 19E), blood (FIG. 19F) or liver (FIG. 19G) samples of mice treated with: i.p. saline, i.p. isoguvacine (“Iso.”, 20 mg/kg, samples collected 1, 3 or 24 hours post-injection), intracerebral injection isoguvacine (20 mg/kg, 1 hour post-injection), i.p. diazepam (“DZ”, 20 mg/kg, 1 hour post injection) or intracerebral injection diazepam (20 mg/kg, 1 hour post injection). FIG. 19H: Normalized peak chloride flux through α1β3γ2- and α2β3γ2-containing GABAA receptors in response to isoguvacine application. […] FIGS. 19I-19K: GABAA receptor subunit RNA expression levels across peripheral somatosensory neuron subtypes, for the alpha (FIG. 19I), beta (FIG. 19J), and gamma (FIG. 19K) subunit types. […] Two-way ANOVA with post-hoc Sidak's test, *, p<0.05. FIG. 19M: Response to a light air puff stimulus alone in mice following i.p. administration of either saline or 2 mg/kg isoguvacine treatment. Responses are expressed as percent of startle response to a 125 dB noise. Two-way ANOVA with post-hoc Sidak's test, *, p<0.05. FIG. 19N: Magnitude of startle response to a 125 dB noise in mice following i.p. administration of either saline or 2 mg/kg isoguvacine treatment. Responses are expressed as percent of startle response to a 125 dB noise. Two-way ANOVA with post-hoc Sidak's test, *, p<0.05.
Results of the GABAA receptor restoration experiments raised the possibility that pharmacological treatment with a GABAA receptor agonist may improve tactile reactivity in Mecp2 mutant mice. It was therefore tested whether benzodiazepines, which are positive allosteric modulators (PAMs) of GABAA receptors, would attenuate hairy skin hypersensitivity in Mecp2 mutant mice. Advillin^Cre; Mecp2^f/y mutant mice and their control littermates were administered either vehicle alone or the benzodiazepine midazolam (2 mg/kg, i.p.) in a pseudorandomized manner, and then subjected to tactile PPI. On the following day, treatment regimens were reversed, and tactile PPI was repeated.
While traditional blood-brain barrier (BBB) penetrating benzodiazepines and non-benzodiazepine GABAA receptor PAMs are useful for treating some ASD-related symptoms in patients, including acute anxiety, significant adverse effects including sedation and addictive potential are common (Gudex, 1991). Furthermore, long-term benzodiazepine use is linked to cognitive impairment across multiple domains, including short-term verbal memory and attention (Golombok et al., 1988; Tata et al., 1994), leading to general reluctance within the medical community for prescribing benzodiazepines and other GABAA receptor PAMs to young children (Howes et al., 2018). […]

[2] = Bio-distribution of isoguvacine by LC-MS; format: in vivo, mouse
Description: FIGS. 19A-19N show acute administration of the peripherally-restricted GABAA receptor agonist isoguvacine improves tactile hypersensitivity in five genetic and one environmental model of ASD. […] Two-way ANOVA with post-hoc Sidak's test, *, p<0.05. FIG. 19B: Response to a light air puff stimulus alone in mice following i.p. administration of either saline or 2 mg/kg midazolam treatment. Responses are expressed as percent of startle response to a 125 dB noise. Two-way ANOVA with post-hoc Sidak's test, *, p<0.05. FIG. 19C: Magnitude of startle response to a 125 dB noise in mice following i.p. administration of either saline or 2 mg/kg midazolam treatment. Responses are expressed as percent of startle response to a 125 dB noise. Two-way ANOVA with post-hoc Sidak's test, *, p<0.05. FIG. 19D: Magnitude of startle response to a 125 dB noise in mice following i.p. administration of saline, midazolam (2 mg/kg) or a peripherally-restricted GABAA receptor agonist, isoguvacine (2 mg/kg). Responses are expressed as percent of startle response to a 125 dB noise. Two-way ANOVA with post-hoc Sidak's test, *, p<0.05. FIGS. 19E-19G: Liquid chromatography mass spectrometry (LC-MS) quantified isoguvacine concentrations in cerebrospinal fluid (CSF) (FIG. 19E), blood (FIG. 19F) or liver (FIG. 19G) samples of mice treated with: i.p. saline, i.p. isoguvacine (“Iso.”, 20 mg/kg, samples collected 1, 3 or 24 hours post-injection), intracerebral injection isoguvacine (20 mg/kg, 1 hour post-injection), i.p. diazepam (“DZ”, 20 mg/kg, 1 hour post injection) or intracerebral injection diazepam (20 mg/kg, 1 hour post injection). FIG. 19H: Normalized peak chloride flux through α1β3γ2- and α2β3γ2-containing GABAA receptors in response to isoguvacine application. […] FIGS. 19I-19K: GABAA receptor subunit RNA expression levels across peripheral somatosensory neuron subtypes, for the alpha (FIG. 19I), beta (FIG. 19J), and gamma (FIG. 19K) subunit types. […] Two-way ANOVA with post-hoc Sidak's test, *, p<0.05. FIG. 19M: Response to a light air puff stimulus alone in mice following i.p. administration of either saline or 2 mg/kg isoguvacine treatment. Responses are expressed as percent of startle response to a 125 dB noise. Two-way ANOVA with post-hoc Sidak's test, *, p<0.05. FIG. 19N: Magnitude of startle response to a 125 dB noise in mice following i.p. administration of either saline or 2 mg/kg isoguvacine treatment. Responses are expressed as percent of startle response to a 125 dB noise. […]
FIGS. 28A-28U are related to FIGS. 21A-210. FIG. 28A: Liquid chromatography mass spectrometry (LC-MS) quantified isoguvacine concentrations in brain homogenate samples of mice treated with isoguvacine (2 mg/kg, i.p.) from P1-42. […] Responses are expressed as percent of startle response to a 125 dB startle noise. […]

[3] = after six-week treatment, 2 mg/kg i.p. daily starting at P0

Compound: O=C(O)C1=CCNCC1 [Isoguvacine, isoguvacine]
- hairy skin sensitivity (tactile PPI) ([1]; Advillin^Cre, Gabrb3^f/f mice (homozygous deletion), 2 mg/kg i.p.): no reduction in hairy skin sensitivity
- tactile hypersensitivity (tactile PPI performance and responsivity to air puff) ([1]; Advillin^Cre, Mecp2^f/y and Advillin^Cre, Gabrb3^f/+ mutant mice, acute 2 mg/kg i.p.): significantly reduced tactile hypersensitivity; also recorded: improved tactile hypersensitivity
- hairy skin hypersensitivity ([1]; Shank3, Fmr1, and Cntnap2 mutant mice, acute 2 mg/kg i.p.): attenuated hairy skin hypersensitivity
- hairy skin hypersensitivity ([1]; mice exposed to polyinosinic:polycytidylic acid at E12.5 (maternal immune activation model)): improvement in hairy skin hypersensitivity
- drug in blood and liver ([2]; 20 mg/kg i.p.): detected in the blood and liver
- drug in brain or cerebrospinal fluid ([2]; 20 mg/kg i.p.): undetectable in the brain or cerebrospinal fluid
- drug in brain or spinal cord [2, 3]: not the brain or spinal cord
- drug in liver [2, 3]: detected in liver
